Data taken from patent US4346082A, “Method of employing therapeutic composition comprising ammonium or substituted ammonium compounds for treatment of alcoholism” (The Vinoxen Company, priority 1981, dated 1982).
Where two headings read alike, the source gives them in different places. Each block holds one compound with its values, some of them ahead of it.

Tests used:
mice [1] = assay: Acute, subacute and chronic toxicity in mice, gastric catheter
effects of alcohol [2] = assay: Efficacy in altering the effects of alcohol administered to mice; assay type: in vivo; settings: for comparative effect on mice of ammonium thiosulfate and ammonium sulfate: series of tests in mice
Protocol: Tests of some of the compounds encompassed within the scope of this invention were carried out with mice to determine efficacy in altering the effects of alcohol administered to the test animals.

humans [3] = assay: Toxicity in humans, repeated administration of capsules; settings: up to 20 capsules per day (1 gram/capsule) for 10 days
rats [4] = assay: Acute, subacute and chronic toxicity in rats, gastric catheter
[5] = pH of 5 weight percent aqueous salt solution; assay type: physicochemical; settings: 5 g salt per 100 g aqueous solution, 25° C
Protocol: For each salt, 5.000 grams of reagent grade material was weighed and added to 95.00 grams of water. […] The instrument was allowed to equilibrate for three minutes between each sample, and the electrodes were rinsed with carbonate-free deionized water. Manual temperature control was set at 25° C.

[6] = system: effect of alcohol on a human brain; settings: publication DOT HS-801 208 (1974); cited from earlier work
[7] = system: ethanol-induced neurological deficit
Protocol: (§1) Neurological deficit was recorded if the animal was unable to remain on the rod for at least 10 seconds.

mice [8] = settings: mouse, in vivo
[9] = system: ethanol-induced neurological deficit; settings: for Fraction Protected / Percent (protected): 0.6 ml/mouse
Protocol: They were deprived of food, but not water, for a period of five hours preceding the test. […] Ten minutes later the animals were tested for neurological deficit or its absence in the usual manner as described in Example 1. A separate group of fasted by non-pretreated mice served as ethanol controls.

humans [10] = settings: in vivo
rats [11] = settings: rat, in vivo
[12] = system: ethanol-induced neurological deficit; settings: for Fall from rod in 10 sec. (individual mouse): 0.6 ml of 10% solution oral, 30 min before 0.5 ml 30% ethanol oral; for No. Protected/No. Treated: 0.6 ml/mouse of 10% solution oral, ethanol 0.5 ml/mouse; for effectiveness as inhibitors of ethanol-induced neurological deficit: at the dose used (0.6 ml/mouse of 10% solution)
Protocol: as §1
Each composition was prepared freshly as a 10% aqueous solution from the crystalline preparation. A dose of 0.6 ml/mouse was administered orally to 10 mice for each compound. […] A group of 10 untreated mice were used as controls.

[13] = system: manifestations of the effects of alcohol; settings: 1 or 2 capsules of 1 gram after 1 or 2 alcoholic drinks; in some cases
Excerpt: Throughout the specification and claims reference to an alcoholic drink means reference to an aqueous mixture of ethanol containing about 15-25 grams of ethanol per drink.

effects of alcohol [14] = assay: Efficacy in altering the effects of alcohol in humans; settings: compared with ammonium sulfate
neurological deficit [15] = system: neurological deficit
Protocol: Ten minutes later the animals were placed, individually, on a rotored, rotating at 6 rpm. […] Absence of neurological deficit was similarly recorded (+) if the animal had sufficient coordination and muscular power to remain on the rotating rod for 10 seconds or more.

neurological deficit [16] = settings: i.p., fasted mice; 0.12-0.19 at 95% confidence limit
Protocol: Further, and in order to avoid physio-chemical problems that might, albeit remotely, arise if ethanol is administered orally, applicant also determined the intraperitoneal ED50 of ethanol in fasted mice.

[17] = ethanol 0.50 ml per mouse, ammonium thiosulfate pretreated
[18] = ethanol 0.63 ml per mouse, ammonium thiosulfate pretreated
[19] = ethanol 0.75 ml per mouse, ammonium thiosulfate pretreated
[20] = ethanol 0.87 ml per mouse, ammonium thiosulfate pretreated
[21] = ethanol 1.00 ml per mouse, ammonium thiosulfate pretreated
[22] = ethanol 0.05 ml per mouse, non-pretreated
[23] = ethanol 0.10 ml per mouse, non-pretreated
[24] = ethanol 0.15 ml per mouse, non-pretreated
[25] = ethanol 0.20 ml per mouse, non-pretreated
[26] = ethanol 0.30 ml per mouse, non-pretreated
[27] = ethanol 0.50 ml per mouse, non-pretreated

Compound: CC(=O)O [Ammonium acetate, ammonium acetate]
acute, subacute and chronic toxicity (mice [1]): low toxicity | efficacy in altering the effects of alcohol in mice (effects of alcohol [2]; mice): Good results | clinical or analytic noxious effects (humans [3]): no clinical or analytic noxious effects | acute, subacute and chronic toxicity (rats [4]): low toxicity | pH of 5 Weight Percent Solution [5]: 6.790

Compound: Cl.N [Ammonium chloride, ammonium chloride, reference compound]
amethystic effect [6]: does not appear to act as an amethystic agent | pH of 5 Weight Percent Solution [5]: 4.761

pH of 5 Weight Percent Solution [5]: 5.335
Compound: N.NS(=O)(=O)O [Ammonium sulfamate, ammonium sulfamate]

Compound: N.N.O=S(O)(O)=S [Ammonium thiosulfate, ammonium thiosulfate]
ED50 of 30% ethanol in pretreated mice ([7]; 30% (v/v) ethanol oral, ammonium thiosulfate pretreated): 0.76 ml/mouse | oral ED50 of ethanol in ammonium thiosulfate pretreated animals ([7]; 30% (v/v) ethanol, 95% limits 0.65-0.90 ml): 0.76 mL | increase in ethanol required to induce neurological deficit following pretreatment ([7]; ammonium thiosulfate pretreated vs non-pretreated mice): nearly five times | Fraction Falling From Rod in 10 sec. [7, 17]: 1/10 | Percent Falling [7, 17]: 10% | Fall from rod in 10 sec. (individual mouse) ([7]; ethanol 0.5 ml, 0.6 ml of 10% ammonium thiosulfate solution oral, 30 min before): - and + | Fraction Falling From Rod in 10 sec. [7, 18]: 2/10 | Percent Falling [7, 18]: 20% | Fall from rod in 10 sec. (individual mouse) ([7]; ethanol 0.63 ml, 0.6 ml of 10% ammonium thiosulfate solution oral, 30 min before): - and + | Fraction Falling From Rod in 10 sec. [7, 19]: 4/10 | Percent Falling [7, 19]: 40% | Fall from rod in 10 sec. (individual mouse) ([7]; ethanol 0.75 ml, 0.6 ml of 10% ammonium thiosulfate solution oral, 30 min before): + and ° and - | Fraction Falling From Rod in 10 sec. [7, 20]: 7/10 | Percent Falling [7, 20]: 70% | Fall from rod in 10 sec. (individual mouse) ([7]; ethanol 0.87 ml, 0.6 ml of 10% ammonium thiosulfate solution oral, 30 min before): + and - | Fraction Falling From Rod in 10 sec. [7, 21]: 10/10 | Percent Falling [7, 21]: 100% | Fall from rod in 10 sec. (individual mouse) ([7]; ethanol 1.00 ml, ammonium thiosulfate solution dose printed as 0.0 ml): + | acute, subacute and chronic toxicity (mice [8]): low toxicity | percent of pure ammonium thiosulfate required to protect 50% of the mice ([9]; 0.6 ml/mouse oral as basic dose): 3.6 (2.63-4.93%) | Fraction Protected ([9]; 1.25% ammonium thiosulfate): 0/10 | Percent (protected) ([9]; 1.25% ammonium thiosulfate): 0% | Fall from rod in 10 sec. (individual mouse) ([9]; 1.25% ammonium thiosulfate, 0.6 ml/mouse oral, 30% ethanol 0.5 ml/mouse): + | Fraction Protected ([9]; 2.5% ammonium thiosulfate): 3/10 | Percent (protected) ([9]; 2.5% ammonium thiosulfate): 30% | Fraction Protected ([9]; 5.0% ammonium thiosulfate): 7/10 | Percent (protected) ([9]; 5.0% ammonium thiosulfate): 70% | Fraction Protected ([9]; 7.5% ammonium thiosulfate): 8/10 | Percent (protected) ([9]; 7.5% ammonium thiosulfate): 80% | Fraction Protected ([9]; 10.0% ammonium thiosulfate): 8/10 | Percent (protected) ([9]; 10.0% ammonium thiosulfate): 80% | comparative effect on mice of ammonium thiosulfate and ammonium sulfate (effects of alcohol [2]): approximately equally effective | clinical or analytic noxious effects (humans [10]): no clinical or analytic noxious effects | acute, subacute and chronic toxicity (rats [11]): low toxicity | Fall from rod in 10 sec. (individual mouse) [12]: - and + | No. Protected/No. Treated [12]: 8/10 | effectiveness as inhibitors of ethanol-induced neurological deficit [12]: highly effective | relative potency of ammonium thiosulfate and ammonium sulfate ([12]; single test): essentially equipotent | additional drinks consumed without typical manifestations of the effects of alcohol [13]: up to 8 additional drinks | expected effect in altering the effects of alcohol ingestion in humans (effects of alcohol [14]): substantially greater | pH of 5 Weight Percent Solution [5]: 5.966

Compound: CCO [Ethanol, ethanol]
ED50 (95% Limit) (neurological deficit [15]; 30% (v/v) ethanol oral, non-pretreated, 95% limit 0.13-0.22): 0.17 mL | oral ED50 of 30% ethanol for neurological deficit, non-pretreated mice (neurological deficit [15]; 30% (v/v) ethanol, 95% fiducial limits 0.13 to 0.22 ml/mouse): 0.17 ml/mouse | Fall from rod in 10 sec. (individual mouse) (neurological deficit [15]; ethanol 0.05 ml oral, non-pretreated): - | Fraction Falling From Rod in 10 sec. (neurological deficit [15]; [22]): 0/5 | Percent Falling (neurological deficit [15]; [22]): 0% | Fraction Falling From Rod in 10 sec. (neurological deficit [15]; [23]): 2/10 | Percent Falling (neurological deficit [15]; [23]): 20% | Fraction Falling From Rod in 10 sec. (neurological deficit [15]; [24]): 4/10 | Percent Falling (neurological deficit [15]; [24]): 40% | Fraction Falling From Rod in 10 sec. (neurological deficit [15]; [25]): 7/10 | Percent Falling (neurological deficit [15]; [25]): 70% | Fraction Falling From Rod in 10 sec. (neurological deficit [15]; [26]): 4/5 | Percent Falling (neurological deficit [15]; [26]): 80% | Fall from rod in 10 sec. (individual mouse) (neurological deficit [15]; ethanol 0.5 ml oral, non-pretreated): + | Fraction Falling From Rod in 10 sec. (neurological deficit [15]; [27]): 10/10 | Percent Falling (neurological deficit [15]; [27]): 100% | intraperitoneal ED50 of 30% ethanol (neurological deficit [16]): 0.15 ml/mouse

Compound: N[C@@H](Cc1ccc(O)c(O)c1)C(=O)O [L-dopa]
amethystic effect [6]: most effective amethystic agent

Compound: ammonium sulfate
comparative effect on mice of ammonium thiosulfate and ammonium sulfate (effects of alcohol [2]): approximately equally effective | clinical or analytic noxious effects (humans [3]): no clinical or analytic noxious effects | Fall from rod in 10 sec. (individual mouse) [12]: - and + | No. Protected/No. Treated [12]: 7/10 | effectiveness as inhibitors of ethanol-induced neurological deficit [12]: highly effective | pH of 5 Weight Percent Solution [5]: 5.263
